Our source for the IC50, bioavailability and AUC(0-t) values is US10125121B2, “FYN kinase inhibitors” (ROTTAPHARM BIOTECH S.R.L., priority 2015, dated 2018).

The structures appear in SMILES notation.

One series deals with YES (Homo sapiens, UniProt P07947). Put plainly: Kinase selectivity panel by Cerep.
In a further series the target is HCK (Homo sapiens, UniProt P08631). Put plainly: Kinase selectivity panel by Cerep.
Series [1] has as its system NF-kB activation in JB6 CI 41-5a (P+) cells. Put plainly: Gene reporter (GR) assay, NF-kB luciferase after TNFα stimulation. In kind it is cell-based, murine. The conditions noted are these: Mus musculus; 1 h pre-treatment, 2 ng/ml TNFα for 4 h; read-out: IC50(nM) GR Inhibition. The text has this:
To determine if the compounds of the invention were active also in a cellular model, a gene reporter assay was established in a cell line (JB6 CI 41-5a (P+)) know to activate Fyn kinase via an inflammatory stimuli (TNFα). GR assay measures the activation of the nuclear transcription factor NF-kB, situated down-stream the Fyn activation pathway. Products active in this analysis has to penetrate in the cell and inhibit the activation pathway of NF-kB.
The murine epithelial cell line JB6 CI 41-5a (P+) (ATCC® Cat. # CRL-2010) was stably transfected with the pGL4.32[luc2P/NFkB-RE/Hygro] vector (Promega). Clonal selection was achieved by limiting dilution in MEM (+Earle's BSS+1.5 g/l sodium bicarbonate+0.1 mM NEAA)+GlutaMAX™-I, +1 mM sodium pyruvate, +5% FBS+80 μg/ml Hygromycin B. The clones were tested for their response to TNFα stimulus. The obtained transfected cells (JB6(P+) NFkB-RE-luc2P T3-C10) contained a firefly luciferase gene (luc2P) under the control of minimal TATA promoter with multiple Nuclear Factor-kB response elements (NFkB-REs). These NFkB-REs are DNA binding sequences for the NF-kB transcription factor.
JB6(P+) NFkB-RE-luc2P T3-C10 cells were used for the analysis of NF-kB activity modulation, after TNFα stimulation, by Fyn-inhibitors (Hwang et al.; Biochem. Pharmacol. 2009, 77 (7):1213-22).
6000 cells/well were plated in a 96× well plate. After 24 h new medium without antibiotics was given. After further 24 h the cells were pre-treated with the different compounds for 1 h and then stimulated with 2 ng/ml TNFα for 4 h. In each experiments two positive standards were always used, and each tested condition was analyzed in quadruplicate.
The luciferase analysis was performed with ONE-Glo™+ToxLuciferase Reporter and Cell Viability Assay kit (Promega). This assay combined luciferase assay chemistry with a cell viability marker to better understand reporter gene expression in the context of cell health. The assay uses a two-step process. The first part of the assay was a non-lytic fluorescence assay (CellTiter-Fluor™ Cell Viability Assay) that measured the relative number of live cells in a culture population, as it measures a conserved and constitutive protease activity within live cells. The live-cell protease activity was restricted to intact viable cells and was measured using a fluorogenic, cell-permeant peptide substrate (glycyl-phenylalanyl-aminofluorocoumarin; GF-AFC). The generated fluorescent signal, proportional to the number of living cells, was measured with EnVision microplate reader (PerkinElmer) using an excitation wavelength of 400 nm and emission wavelength of 500 nm.
The second part of the assay uses the ONE-Glo™ Luciferase Assay System to quantify firefly luciferase reporter gene expression. The ONE-Glo™ Assay contained a fluoro-luciferin substrate, more tolerant to sample components than standard luciferase assay reagents. Luminescence was measured with EnVision microplate reader (PerkinElmer).
Compounds of Formula (I) were tested for their capacity to penetrate into the cell and inhibit the activation pathway of NF-kB.

Series [2] concerns the target active FYN (human recombinant, 62.7 kDa) (Homo sapiens, UniProt P06241). Put plainly: In vitro kinase assay (Z′-LYTE FRET). Type of series: biochemical. The conditions noted are these: read-out: IC50(nM) FYN INHIBITION
The next series in a line: Pharmacokinetics in rats. Type of series: in vivo, rat. The conditions noted are these: rat, in vivo, po, 1 mg/kg orally.

Sequence of active FYN (human recombinant, 62.7 kDa) (P06241 whole entry): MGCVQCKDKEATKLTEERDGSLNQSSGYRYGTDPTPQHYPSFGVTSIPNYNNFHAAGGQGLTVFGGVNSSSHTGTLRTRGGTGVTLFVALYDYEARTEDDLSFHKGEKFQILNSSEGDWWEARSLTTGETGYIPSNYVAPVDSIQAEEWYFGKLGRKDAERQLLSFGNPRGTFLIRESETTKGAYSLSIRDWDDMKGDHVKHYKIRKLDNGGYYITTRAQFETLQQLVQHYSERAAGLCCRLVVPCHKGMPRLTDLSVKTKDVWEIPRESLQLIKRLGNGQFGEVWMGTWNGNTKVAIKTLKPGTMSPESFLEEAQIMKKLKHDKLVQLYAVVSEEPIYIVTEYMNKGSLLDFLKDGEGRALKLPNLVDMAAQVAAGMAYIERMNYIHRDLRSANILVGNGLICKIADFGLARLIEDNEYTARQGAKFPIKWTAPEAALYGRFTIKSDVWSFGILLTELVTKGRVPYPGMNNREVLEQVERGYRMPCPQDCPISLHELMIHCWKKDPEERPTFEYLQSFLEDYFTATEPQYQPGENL
Sequence of HCK (P08631 whole entry): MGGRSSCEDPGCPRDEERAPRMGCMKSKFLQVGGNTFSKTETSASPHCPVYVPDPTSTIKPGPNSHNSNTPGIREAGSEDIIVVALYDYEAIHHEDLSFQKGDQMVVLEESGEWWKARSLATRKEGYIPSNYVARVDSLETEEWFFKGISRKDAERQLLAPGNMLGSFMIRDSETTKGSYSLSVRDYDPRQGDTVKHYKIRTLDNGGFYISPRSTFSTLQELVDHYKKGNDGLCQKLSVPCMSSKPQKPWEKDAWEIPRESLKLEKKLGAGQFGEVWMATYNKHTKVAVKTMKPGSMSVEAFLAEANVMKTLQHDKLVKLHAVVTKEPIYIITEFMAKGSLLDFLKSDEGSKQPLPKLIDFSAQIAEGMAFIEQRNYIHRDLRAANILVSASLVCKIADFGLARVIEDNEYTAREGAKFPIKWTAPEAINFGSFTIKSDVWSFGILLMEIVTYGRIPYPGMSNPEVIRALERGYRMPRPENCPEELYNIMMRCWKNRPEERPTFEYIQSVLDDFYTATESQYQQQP
Sequence of YES (P07947 whole entry): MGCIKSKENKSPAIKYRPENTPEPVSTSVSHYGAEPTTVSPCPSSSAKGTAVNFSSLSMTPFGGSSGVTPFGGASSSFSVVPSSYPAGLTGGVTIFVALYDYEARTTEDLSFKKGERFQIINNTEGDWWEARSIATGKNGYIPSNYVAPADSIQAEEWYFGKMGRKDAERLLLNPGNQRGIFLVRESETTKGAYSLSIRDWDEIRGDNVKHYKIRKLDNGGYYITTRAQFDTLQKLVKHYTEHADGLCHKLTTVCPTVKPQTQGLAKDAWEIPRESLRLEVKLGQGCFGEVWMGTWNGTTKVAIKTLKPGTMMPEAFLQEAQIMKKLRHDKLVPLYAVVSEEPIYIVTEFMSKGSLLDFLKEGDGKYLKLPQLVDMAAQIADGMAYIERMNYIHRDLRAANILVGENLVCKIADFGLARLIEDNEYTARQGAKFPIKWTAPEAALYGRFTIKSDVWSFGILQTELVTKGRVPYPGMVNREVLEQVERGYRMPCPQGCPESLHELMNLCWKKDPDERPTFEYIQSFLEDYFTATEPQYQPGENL

As usually defined, the IC50 is the midpoint of a concentration-inhibition curve. One may read the bioavailability as dose-corrected exposure relative to a reference, in per cent. Read a high bioavailability as much systemic uptake. As for `O=C(Nc1ccc(CN2CCN(c3nccc(Nc4cc(C5CC5)[nH]n4)n3)CC2)cc1)c1ccccc1C(F)(F)F` [Compound 2, N-(4-((4-(4-((5-cyclopropyl-1H-pyrazol-3-yl)amino)pyrimidin-2-yl)piperazin-1-yl)methyl)phenyl)-2-(trifluoromethyl)-benzamide], the 50% inhibitory concentration (IC50) at YES is 270 nM; on HCK, 3200 nM; in series [1], 190 nM; in series [2] it was 9 nM. For the same compound, the bioavailability in “Pharmacokinetics in rats” was determined as 51%. The AUC(0-t) in the series “Pharmacokinetics in rats” (read-out: AUC (0-24 h)) worked out at 877 ng·h/mL.
